Results reported in patent US6767558B2, “Inhibiting oxidative degradation of pharmaceutical formulations” (Pfizer Inc., priority 2000, dated 2004).

Key:
[1] = Accelerated stability of Compound 2 formulations; N-oxide degradation product by RPLC; format: physicochemical; conditions: addition of ferrous ion source to the formulations, six weeks
Method: Compound 2 was similarly formulated with, inter alia, excipients comprising about 0.01% of ferrous ammonium sulfate hexahydrate into solid binary pharmaceutical formulations. The excipients further included microcrystalline cellulose (Avicel®), lactose, or silicified microcrystalline cellulose (Prosolv®; Penwest Pharmaceuticals; Patterson, N.Y.).
The formulations so prepared were then stored under accelerated stability conditions, i.e. at 40° C. at 75% relative humidity and 50° C. at 20% relative humidity for six weeks. Reversed-phase ion pair liquid chromatography (RPLC) was used to separate Compound 2 from its N-oxide oxidative degradation product. RPLC was performed utilizing a Waters Symmetry C18 column (Waters Instrument Co.; Milford, Mass.) 15 cm length×3.9 mm I.D. at a temperature of 40° C. using a mobile phase of buffer (20 mM KH2PO4 (pH adjusted to 3.0 with phosphoric acid, with 0.1% octanesulfonic acid): acetonitrile (60:40 v/v), a flow rate of 1.0 mL/min., and an injection volume of 10 μL at a run time of 35 minutes. [drawing 2]

[2] = Accelerated stability of Compound 1 tablets; oxidative degradation by-products by RPLC; format: physicochemical; conditions: addition of ferrous ion source to the formulation, six weeks
Method: Compound 1 was formulated with, inter alia, excipients comprising about 0.01% by weight of ammonium ferrous sulfate hexahydrate into solid binary pharmaceutical formulations as follows. A solution of 350 mg of ferrous ammonium sulfate hexahydrate, dissolved in 100 ml of pure water, was added to 500 g of microcrystalline cellulose (Avicel®; FMC; Philadelphia, Pa.) and the mixture was mixed thoroughly for about ten minutes. The mixture was then dried in an Aeromatic fluid-bed dryer (Niro Inc.; Columbia, Md.) at an inlet temperature of 65° C. The dried Avicel® excipient so prepared comprising the ferrous ion source was milled through a Mini-Comil 193 (Quadro Engineering; Waterloo, Ontario, Canada) with a stainless steel screen. This identical procedure was employed to prepare excipients comprising lactose and the ferrous ion source. A pre-determined amount of Compound 1, the dried Avicel® or lactose excipient comprising the ferrous ion source, and crospovidone (BASF Corp.; Mount Olive, N.J.) were added to a stainless steel V-blender and blended for about 20 minutes. Magnesium stearate was then added and the resulting mixture was blended for an additional five minutes. […]

formation of N-oxide oxidative degradation by-product on addition of the ferrous ion source [1]	formation of M+16 and M+32 oxidative degradation by-products on addition of the ferrous ion source [2]	SMILES
inhibited significantly	–	Oc1ccc2c(c1)CC[C@H](c1ccccc1)[C@@H]2c1ccc(OCCN2CCCC2)cc1 (relative stereo) [Compound 2, cis-6-phenyl-5-[4-(2-pyrrolidin-1-yl-ethoxy)-phenyl]-5,6,7,8-tetrahydronaphthalen-2-ol]
–	inhibited significantly	COc1ccc(C(C)C)cc1CN[C@H]1C2CCN(CC2)[C@H]1C(c1ccccc1)c1ccccc1 [Compound 1, (2S,3S)-N-(5-isopropyl-2-methoxyphenyl)methyl-2-diphenylmethyl-1-azabicyclo[2.2.2]octan-3-amine]
